Test results from US20140107051A1, “ISOFLAVONES FOR TREATING MUCOPOLYSACCHARIDOSES” (INSTYTUT FARMACEUTYCZNY, priority 2005, published 2014).
Entries after “also recorded” stand apart in the source; their conditions may differ. Where two headings read alike, the source gives them in different places.

How the values were obtained:
[1] = tested on: cultured human skin fibroblasts derived from normal individuals; test: 35S-sulphate incorporation test of glycosaminoglycans synthesis, normal cells; assay type: cell-based; details: for Inhibition in relation to genistein, first symbol (normal cells) / activity at 30 µM / Relative GAG synthesis (converted to 1 cell), Normal cells: 30 μM; for activity at 30 µM: Homo sapiens, Skin fibroblast, read-out: Relative GAG synthesis (converted to 1 cell), Normal cells; for activity at 30 µM / Relative GAG synthesis (converted to 1 cell), Normal cells: DMSO control = 1
Method: (§1) The activity of isoflavones was evaluated by the measure of glycosaminoglycans synthesis in 35S-sulphate incorporation test comprising incubation of the radiolabelled 35S-sulfate into GAGs in cultured human skin fibroblasts derived from normal individuals (control) and patients affected with mucopolysaccharidose (Murata et al., Arch Biochem Biophys 2003; 413: 229-235).
(§2) The negative control was DMSO (diluent for genistein and all derivatives), the positive control—genistein. […] Experiment with each cell line has been repeated twice, and every measurement has been done twice.

[2] = tested on: fibroblasts of patients affected with MPS I; test: 35S-sulphate incorporation test of glycosaminoglycans synthesis, MPS I cells; assay type: cell-based, human; details: for activity at 30 µM: Homo sapiens, Fibroblast, read-out: Relative GAG synthesis (converted to 1 cell), MPS I; for activity at 30 µM / Relative GAG synthesis (converted to 1 cell), MPS I: DMSO control = 1; for activity at 30 µM / Inhibition in relation to genistein, second symbol (MPS I) / Relative GAG synthesis (converted to 1 cell), MPS I: 30 μM
Method: as §1, §2

[3] = tested on: cultured human skin fibroblasts derived from patients affected with mucopolysaccharidose; test: 35S-sulphate incorporation test of glycosaminoglycans synthesis, different human cell lines / MPS types; assay type: cell-based; details: for influence on GAG synthesis compared with genistein (in words): 30 μM, both cell lines of Table 2
Method: as §1, §2

[4] = Proliferation 144 h (Table 4); assay type: cell-based; details: read-out: Proliferation 144 h IC50
[5] = tested on: fibroblasts cells derived from patients affected with different MPSs; test: GAG level / deposits in cultured fibroblasts of MPS patients; assay type: cell-based, human
fibroblasts = test: Electron microscope observation of GAG deposits in fibroblasts; assay type: cell-based, human; details: fibroblasts cultured one week; genistein 10 micromolar
[6] = rat; intravenously administered; cited from earlier work
[7] = tested on: glycosaminoglycan (GAG) synthesis; test: GAG synthesis, 35S incorp. (Table 4); assay type: cell-based
MPS IIIA fibroblasts = test: Number of lysosomal structures by electron microscopy, MPS IIIA; assay type: cell-based, human; details: 30 μM
MPS IIIB fibroblasts = test: Number of lysosomal structures by electron microscopy, MPS IIIB; assay type: cell-based, human; details: 30 μM
[8] = read-out: Cytotoxicity 24 h LC50, 24 h
[9] = read-out: Cytotoxicity 48 h LC50, 48 h

Row | Structure (SMILES) | Inhibition in relation to genistein, first symbol (normal cells) [1] | IC50 [4] [µM] | Relative GAG synthesis (converted to 1 cell), Normal cells [1] | Relative GAG synthesis (converted to 1 cell), MPS I [2] | influence on GAG synthesis compared with genistein (in words) [3] | GAG synthesis 35S incorp. [7] [%] | Number of structures per 100 μm^2 of cellular cross section ± SD, amorphous (MPS IIIA fibroblasts) [per 100 μm^2] | Number of structures per 100 μm^2 of cellular cross section ± SD, complexed (MPS IIIA fibroblasts) [per 100 μm^2] | Number of structures per 100 μm^2 of cellular cross section ± SD, lamellar (MPS IIIA fibroblasts) [per 100 μm^2] | Number of structures per 100 μm^2 of cellular cross section ± SD, total number (MPS IIIA fibroblasts) [per 100 μm^2] | Number of structures per 100 μm^2 of cellular cross section ± SD, amorphous (MPS IIIB fibroblasts) [per 100 μm^2] | Number of structures per 100 μm^2 of cellular cross section ± SD, complexed (MPS IIIB fibroblasts) [per 100 μm^2] | Number of structures per 100 μm^2 of cellular cross section ± SD, lamellar (MPS IIIB fibroblasts) [per 100 μm^2] | Number of structures per 100 μm^2 of cellular cross section ± SD, total number (MPS IIIB fibroblasts) [per 100 μm^2] | CC50 [8] [µM] | CC50 [9] [µM] | other results
1 | O=c1c(-c2ccc(O)cc2)coc2cc(O)cc(O)c12 [Genistein, 4′,5,7-trihydroxy-3-phenylchromen-4-on, reference compound] | 0 | 16.9 |  |  |  |  |  |  |  |  |  |  |  |  |  |  | activity at 30 µM [1]: 25%; level of glycosaminoglycans synthesis (in words) ([1]; fibroblasts from normal individuals, FIG. 1): significant decreasing; activity at 30 µM [2]: 51%; level of glycosaminoglycans synthesis (in words) ([2]; fibroblasts from MPS 1 patients, FIG. 1): significant decreasing; glycosaminoglycans synthesis (in words) ([3]; cells from individuals with other types of MPS, FIG. 2, FIG. 3): significantly reduced; glycosaminoglycans synthesis (in words) ([3]; cultured fibroblasts from MPS patients, 10-30 micromoles/l): significant inhibition of glycosaminoglycans synthesis; level of glycosaminoglycans in cells (in words) ([5]; cells of MPS I, MPS II, MPS IIIA and MPS IIIB patients, six days): significantly decreased, reaching after six days a level almost identical with the normal one; genistein concentrations at which decrease of GAG synthesis and reduction of deposits is observed ([5]; cultured fibroblasts): 10 to 20 µmol/L; removal of GAG deposits accumulated in cells (in words) ([5]; few days of cultivation, genistein 10 micromoles/l, FIG. 4): deposits are gradually removed; also recorded: comparable with the activity of recombinant human α-L-iduronidase (Aldurazyme); deposits seen by electron microscope (in words) (fibroblasts): disappearance of deposits; also recorded: decline of the before accumulated glycosaminoglycans; effectiveness of crossing the blood-brain barrier [6]: about 10%
2 | CCC(=O)OCOc1cc(O)c2c(=O)c(-c3ccc(O)cc3)coc2c1 [IFG-036] | 0/0 | 11.2 | 0.27 | 0.49 | an activity comparable with genistein | 64 ± 21 | 0.22 ± 0.11 | 0.28 ± 0.16 | 0.19 ± 0.14 | 0.73 ± 0.31 | 0.15 ± 0.18 | 0.12 ± 0.11 | 0.25 ± 0.21 | 0.50 ± 0.34 | > 30 | > 30 | Inhibition in relation to genistein, second symbol (MPS I) [2]: 0/0
3 | CCCC[N+](CCCC)(CCCC)CCCC.O=C([O-])COc1cc(O)c2c(=O)c(-c3ccc(O)cc3)coc2c1 [IFG-074, tetrabutylammonium[5-hydroxy-3-(4-hydroxy-phenyl)-4-oxo-4H-chromen-7-yloxy]acetate] |  | 27.3 |  |  |  | 88 ± 39 |  |  |  |  |  |  |  |  | 44.1 | 32.8 | 
4 | CC(=O)Oc1ccc(-c2coc3cc(OC(C)=O)cc(OC(C)=O)c3c2=O)cc1 [IFG-032] | 0 | 17.4 |  |  | an activity comparable with genistein, but only for one cell line |  | 0.17 ± 0.16 | 0.22 ± 0.11 | 0.14 ± 0.08 | 0.53 ± 0.19 | 0.12 ± 0.08 | 0.10 ± 0.07 | 0.17 ± 0.11 | 0.40 ± 0.20 |  |  | activity at 30 µM [1]: 25%; activity at 30 µM [2]: 68%; CC50 at 24 h (in vitro): > 30 µM; CC50 at 48 h (in vitro): > 30 µM
5 | O=C([O-])CCCC(=O)Oc1ccc(-c2coc3cc(OCc4ccccc4)cc(O)c3c2=O)cc1.[Na+] [IFG-061] | 0/0 |  | 0.28 | 0.46 |  |  |  |  |  |  |  |  |  |  | 18.8 |  | 
6 | CCCC[N+](CCCC)(CCCC)CCCC.O=C([O-])CCCC(=O)Oc1cc(O)c2c(=O)c(-c3ccc(O)cc3)coc2c1 [IFG-038] |  | 19.9 | 0.74 | 0.74 | an activity comparable with genistein | 55 ± 13 | 0.21 ± 0.13 | 0.27 ± 0.13 | 0.32 ± 0.16 | 0.80 ± 0.24 | 0.09 ± 0.09 | 0.10 ± 0.10 | 0.21 ± 0.12 | 0.41 ± 0.18 | > 30 | > 30 | 
7 | Cc1ccc(S(=O)(=O)OCCOCCOCCOc2cc(O)c3c(=O)c(-c4ccc(O)cc4)coc3c2)cc1 [IFG-046] | − |  | 1.80 | 0.49 |  | 118 ± 72 |  |  |  |  |  |  |  |  | 20.7 |  | Inhibition in relation to genistein, second symbol (MPS I) [2]: 0
